Reference: PubChem BioAssay AID330 (DTP/NCI, 2004)
Where “and” joins values, the source holds several entries; their conditions need not be identical. Equal entries are not always repeated. Toxic doses and inconclusive results are not listed.

Test system: P388 leukemia ip, CD2F1 mice, survival T/C
Assay: NCI In Vivo Anticancer Drug Screen. Data for tumor model P388 Leukemia (intraperitoneal) in CD2F1 (CDF1) mice
Conditions: endpoint: median survival time, higher = longer survival
Outline: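 Mice carrying the transplanted tumor received test compound or vehicle. Survival was recorded in each group, and the value is the treated-group measurement divided by that of the vehicle-treated control group.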

[1] = dose: 50.0 mg/kg/injection, schedule: Q04DX003 (ip), vehicle: saline with Tween-80
[2] = dose: 100.0 mg/kg/injection, schedule: Q04DX003 (ip), vehicle: saline with Tween-80
[3] = dose: 100.0 mg/kg/injection, schedule: Q04DX003 (ip), vehicle: saline
[4] = dose: 200.0 mg/kg/injection, schedule: Q04DX003 (ip), vehicle: saline
[5] = dose: 400.0 mg/kg/injection, schedule: Q04DX003 (ip), vehicle: saline
[6] = dose: 25.0 mg/kg/injection, schedule: Q01DX005 (ip), vehicle: Klucel (hydroxypropylcellulose) (HPC)
[7] = dose: 50.0 mg/kg/injection, schedule: Q01DX005 (ip), vehicle: Klucel (hydroxypropylcellulose) (HPC)
[8] = dose: 50.0 mg/kg/injection, schedule: Q01DX009 (ip), vehicle: saline with Tween-80
[9] = dose: 100.0 mg/kg/injection, schedule: Q01DX009 (ip), vehicle: saline with Tween-80
[10] = dose: 200.0 mg/kg/injection, schedule: Q01DX009 (ip), vehicle: saline with Tween-80
[11] = dose: 50.0 mg/kg/injection, schedule: Q01DX009 (ip), vehicle: saline
[12] = dose: 100.0 mg/kg/injection, schedule: Q01DX009 (ip), vehicle: saline
[13] = dose: 200.0 mg/kg/injection, schedule: Q01DX009 (ip), vehicle: saline
[14] = dose: 50.0 mg/kg/injection, schedule: Q01DX005 (ip), vehicle: saline with Tween-80
[15] = dose: 100.0 mg/kg/injection, schedule: Q01DX005 (ip), vehicle: saline with Tween-80
[16] = dose: 200.0 mg/kg/injection, schedule: Q01DX005 (ip), vehicle: saline with Tween-80
[17] = dose: 15.0 mg/kg/injection, schedule: Q01DX005 (ip), vehicle: saline with Tween-80
[18] = dose: 25.0 mg/kg/injection, schedule: Q01DX009 (ip), vehicle: saline with Tween-80

With `O=[N+]([O-])c1cnc(Sc2ncccn2)c([N+](=O)[O-])c1` the T/C (dose: 3.12 mg/kg/injection, schedule: Q01DX009 (ip), vehicle: saline) was 96 % of control, the T/C (dose: 3.12 mg/kg/injection, schedule: Q01DX009 (ip), vehicle: suspension in saline) was 107 % of control and the T/C (dose: 6.25 mg/kg/injection, schedule: Q01DX009 (ip), vehicle: saline) was 96 % of control. For the same compound, the T/C (dose: 6.25 mg/kg/injection, schedule: Q01DX009 (ip), vehicle: suspension in saline) was 104 % of control, the T/C (dose: 12.5 mg/kg/injection, schedule: Q01DX009 (ip), vehicle: saline) was 99 % of control and the T/C (dose: 12.5 mg/kg/injection, schedule: Q01DX009 (ip), vehicle: suspension in saline) was 98 % of control and 108 % of control. For the same compound, the T/C (dose: 25.0 mg/kg/injection, schedule: Q01DX009 (ip), vehicle: suspension in saline) was 105 % of control and the T/C (dose: 50.0 mg/kg/injection, schedule: Q01DX009 (ip), vehicle: suspension in saline) was 99 % of control and 107 % of control.

With `Cc1c(COC(=O)NC(C)C)c(COC(=O)NC(C)C)c2c3ccccc3c3ccccc3n12` the T/C (dose: 12.5 mg/kg/injection, schedule: Q01DX009 (ip), vehicle: distilled water + Tween-80) was 180 % of control, the T/C (dose: 25.0 mg/kg/injection, schedule: Q01DX009 (ip), vehicle: distilled water + Tween-80) was 173 % of control and the T/C (dose: 50.0 mg/kg/injection, schedule: Q01DX009 (ip), vehicle: distilled water + Tween-80) was 110 % of control. The T/C (dose: 100.0 mg/kg/injection, schedule: Q01DX009 (ip), vehicle: distilled water + Tween-80) was 88 % of control.

`C=C1C(=O)OC2C1CCC(C)=C1C(=O)C=C(C)C12` (centres undefined) was tested, and the T/C [1] was 109 % of control, the T/C [2] was 116 % of control and the T/C (dose: 200.0 mg/kg/injection, schedule: Q04DX003 (ip), vehicle: saline with Tween-80) was 119 % of control.

In the case of `O=c1[nH]nnc2ccccc12`, the T/C (dose: 50.0 mg/kg/injection, schedule: Q01DX009 (ip), vehicle: Klucel (hydroxypropylcellulose) (HPC)) is reported as 105 % of control and the T/C (dose: 100.0 mg/kg/injection, schedule: Q01DX009 (ip), vehicle: Klucel (hydroxypropylcellulose) (HPC)) is reported as 114 % of control.

`CC1(C)CC(=O)C(C)(CCC#N)C(=O)C1` was tested, and the T/C [3] was 102 % of control, the T/C [4] was 99 % of control and the T/C [5] was 99 % of control.

In the case of `O=c1[nH]cnc2c1ncn2C1SC(CO)C(O)C1O` (centres undefined), the T/C [6] is reported as 100 % of control, the T/C [7] is reported as 108 % of control and the T/C (dose: 100.0 mg/kg/injection, schedule: Q01DX005 (ip), vehicle: Klucel (hydroxypropylcellulose) (HPC)) is reported as 101 % of control. The T/C (dose: 200.0 mg/kg/injection, schedule: Q01DX005 (ip), vehicle: Klucel (hydroxypropylcellulose) (HPC)) was 101 % of control and the T/C (dose: 400.0 mg/kg/injection, schedule: Q01DX005 (ip), vehicle: Klucel (hydroxypropylcellulose) (HPC)) was 92 % of control.

In the case of `NC(=S)N/N=C\C(=O)c1cccc(O)c1`, the T/C [8] is reported as 99 % of control, the T/C [9] is reported as 100 % of control and the T/C [10] is reported as 105 % of control.

In the case of `Nc1cn(C2CC(O)C(CO)O2)c(=O)[nH]c1=O` (centres undefined), the T/C (dose: 25.0 mg/kg/injection, schedule: Q01DX009 (ip), vehicle: saline) is reported as 106 % of control, the T/C [11] is reported as 105 % of control and the T/C [12] is reported as 105 % of control. The T/C [13] was 105 % of control.

`O=C1c2cccc3cccc(c23)C(=O)N1CCCCCCCCN1C(=O)c2cccc3cccc(c23)C1=O` was tested, and the T/C [14] was 96 % of control, the T/C [15] was 95 % of control and the T/C [16] was 87 % of control.

For `COc1cc2c(cc1C(C)c1ccc(Cl)cc1)OCO2` (centres undefined), the T/C [14] was 99 % of control, the T/C [15] was 108 % of control and the T/C [16] was 101 % of control.

In the case of `COc1ccc2c(c1OC)CC(=O)N1CCc3cc4c(cc3C(=O)C21)OCO4` (centres undefined), the T/C (dose: 2.5 mg/kg/injection, schedule: Q01DX005 (ip), vehicle: saline + Tween-80 + alcohol) is reported as 104 % of control, the T/C (dose: 5.0 mg/kg/injection, schedule: Q01DX005 (ip), vehicle: saline + Tween-80 + alcohol) is reported as 101 % of control and the T/C (dose: 10.0 mg/kg/injection, schedule: Q01DX005 (ip), vehicle: saline + Tween-80 + alcohol) is reported as 100 % of control. For the same compound, the T/C (dose: 20.0 mg/kg/injection, schedule: Q01DX005 (ip), vehicle: saline + Tween-80 + alcohol) was 107 % of control.

`CC1CN=C(c2ccc(NC(=O)c3cccc(C(=O)Nc4ccc(C5=NCC(C)N5)cc4)c3)cc2)N1` (centres undefined) was tested, and the T/C (dose: 12.0 mg/kg/injection, schedule: Q01DX010 (ip), vehicle: saline) was 118 % of control, the T/C (dose: 18.0 mg/kg/injection, schedule: Q01DX010 (ip), vehicle: saline) was 154 % of control and the T/C (dose: 27.0 mg/kg/injection, schedule: Q01DX010 (ip), vehicle: saline) was 159 % of control. The T/C (dose: 40.0 mg/kg/injection, schedule: Q01DX010 (ip), vehicle: saline) was 172 % of control.

`COc1cccc(/C=N\NC(=O)CNC(=O)Nc2ccc(Cl)c(Cl)c2)c1OC` was tested, and the T/C [17] was 91 % of control, the T/C (dose: 30.0 mg/kg/injection, schedule: Q01DX005 (ip), vehicle: saline with Tween-80) was 88 % of control and the T/C (dose: 240.0 mg/kg/injection, schedule: Q01DX005 (ip), vehicle: saline with Tween-80) was 95 % of control.

For `CN(C)c1ccc(/C=N/N=C(/C#N)[S][Sn]([S]/C(C#N)=N/N=C/c2ccc(N(C)C)cc2)([c]2ccccc2)[c]2ccccc2)cc1`, the T/C (dose: 7.5 mg/kg/injection, schedule: Q01DX005 (ip), vehicle: saline with Tween-80) was 112 % of control and the T/C [17] was 123 % of control.

For `CC(C)(C)OC(=O)NC1CCC2CCCCC2C1` (centres undefined), the T/C [3] was 100 % of control, the T/C [4] was 104 % of control and the T/C [5] was 100 % of control.

`O=S(=O)(Cc1ccccc1)c1ccccc1` was tested, and the T/C [11] was 118 % of control, the T/C [12] was 118 % of control and the T/C [13] was 116 % of control.

`Cc1cc2cccc(Br)c(=O)c2o1` was tested, and the T/C (dose: 6.25 mg/kg/injection, schedule: Q01DX001 (ip), vehicle: saline with Tween-80) was 95 % of control, the T/C (dose: 12.5 mg/kg/injection, schedule: Q01DX001 (ip), vehicle: saline with Tween-80) was 100 % of control and the T/C (dose: 25.0 mg/kg/injection, schedule: Q01DX001 (ip), vehicle: saline with Tween-80) was 104 % of control.

With `Cc1cc(O)c(O)c(Oc2cc(C)cc(O)c2O)c1` the T/C (dose: 75.0 micrograms/kg/injection, schedule: Q01DX009 (ip), vehicle: saline) was 100 % of control, the T/C (dose: 150.0 micrograms/kg/injection, schedule: Q01DX009 (ip), vehicle: saline) was 109 % of control and the T/C (dose: 300.0 micrograms/kg/injection, schedule: Q01DX009 (ip), vehicle: saline) was 102 % of control.

With `Cn1ncc(=O)c(Cl)c1Cl` the T/C [14] was 95 % of control, the T/C [15] was 101 % of control and the T/C [16] was 102 % of control.

In the case of `FC(F)(F)c1ccc2nc3c4ccccc4c4ccccc4c3nc2c1`, the T/C [11] is reported as 116 % of control, the T/C [12] is reported as 107 % of control and the T/C [13] is reported as 101 % of control.

For `CS(=O)(=O)CC(=O)c1ccccc1`, the T/C [18] was 101 % of control and 106 % of control, the T/C [8] was 97 % of control and the T/C [9] was 111 % of control and 106 % of control. For the same compound, the T/C [10] was 103 % of control and 111 % of control.

In the case of `O=C(CNC(=O)Nc1ccc(C2=NCCN2)cc1)Nc1ccc(C2=NCCN2)cc1`, the T/C (dose: 22.0 mg/kg/injection, schedule: Q01DX009 (ip), vehicle: saline with Tween-80) is reported as 95 % of control, the T/C (dose: 33.0 mg/kg/injection, schedule: Q01DX009 (ip), vehicle: saline with Tween-80) is reported as 113 % of control and the T/C (dose: 75.0 mg/kg/injection, schedule: Q01DX009 (ip), vehicle: saline with Tween-80) is reported as 154 % of control.

In the case of `CC(NNC(=S)N1CCCCCC1)c1ccccn1` (centres undefined), the T/C (dose: 12.5 mg/kg/injection, schedule: Q01DX005 (ip), vehicle: Klucel (hydroxypropylcellulose) (HPC)) is reported as 103 % of control, the T/C [6] is reported as 106 % of control and the T/C [7] is reported as 112 % of control and 113 % of control.

In the case of `CSc1ncnc2c1ncn2C1OC(CO)C(O)OC1O` (centres undefined), the T/C (dose: 16.5 mg/kg/injection, schedule: Q01DX009 (ip), vehicle: saline with Tween-80) is reported as 122 % of control, the T/C [1] is reported as 109 % of control and the T/C (dose: 66.0 mg/kg/injection, schedule: Q04DX003 (ip), vehicle: saline with Tween-80) is reported as 112 % of control. The T/C [2] was 108 % of control.

With `Cc1ccc(NC(=S)NCCc2ccccn2)cc1C` the T/C (dose: 12.5 mg/kg/injection, schedule: Q01DX009 (ip), vehicle: saline with Tween-80) was 94 % of control, the T/C [18] was 94 % of control and the T/C [8] was 93 % of control. For the same compound, the T/C [9] was 99 % of control and 92 % of control, the T/C [10] was 100 % of control and the T/C (dose: 400.0 mg/kg/injection, schedule: Q01DX009 (ip), vehicle: saline with Tween-80) was 105 % of control.
